This test has as its target rat MCH-1 (Rattus norvegicus, UniProt P97639). Description: Radioligand binding assay at cloned rat MCH1 receptor ([3H] Compound A). More on the design: host or cells: Peak rapid 293 (Peakr293) cells, transient calcium phosphate transfection, membranes. To be noted: cloned rat MCH1 receptor; 0.08 nM [3H] Compound A; Peakr293 cell membranes; read-out: Ki (nM) rMCH1.
rat MCH-1, sequence (P97639 whole entry): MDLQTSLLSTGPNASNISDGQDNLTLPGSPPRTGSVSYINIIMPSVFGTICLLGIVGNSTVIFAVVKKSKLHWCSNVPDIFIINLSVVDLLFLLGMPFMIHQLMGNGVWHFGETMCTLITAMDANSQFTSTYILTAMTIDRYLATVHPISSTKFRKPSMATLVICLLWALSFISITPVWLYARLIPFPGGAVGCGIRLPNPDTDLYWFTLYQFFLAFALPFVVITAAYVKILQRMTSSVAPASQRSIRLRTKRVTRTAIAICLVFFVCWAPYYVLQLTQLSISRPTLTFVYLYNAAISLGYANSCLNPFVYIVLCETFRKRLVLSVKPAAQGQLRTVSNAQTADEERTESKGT
Broadly, the Ki is a measure of affinity in units of concentration, obtained from inhibition or displacement. Regarding `CCC(=O)Nc1cccc(C2CCN(CCCC(=O)c3ccc(F)cc3)CC2)c1` [Example 535], the Ki worked out at 28.1 nM.
Turning to `CCC(=O)Nc1cccc(C2CCN(CCCC(=O)c3ccc(Oc4ccccc4)cc3)CC2)c1` [Example 536], the Ki was 150 nM.
For the compound `CC(C)c1ccc(C(=O)CCCN2CCC(c3cccc(NC(=O)C4CC4)c3)CC2)cc1` [Example 537], the Ki turned out to be 67.7 nM.
For `COc1ccc(C(=O)CCCN2CCC(c3cccc(NC(=O)C4CC4)c3)CC2)cc1` [Example 538], the Ki was 36.3 nM.
Take `O=C(CCCN1CCC(c2cccc(NC(=O)C3CC3)c2)CC1)c1ccc(Oc2ccccc2)cc1` [Example 539]: the Ki came out at 268 nM.
In the case of `CCC(=O)Nc1cccc(C2CCN(CCCC(=O)c3ccc(C(C)C)cc3)CC2)c1` [Example 540], the Ki was found to be 172 nM.
In the case of `CC(C)(C)c1ccc(C(=O)CCCN2CCC(c3cccc(NC(=O)C4CC4)c3)CC2)cc1` [Example 541] it was 319 nM.
Regarding `CCC(=O)Nc1cccc(C2CCN(CCCC(=O)c3ccc(C)cc3)CC2)c1` [Example 542], the Ki worked out at 31.3 nM.
Turning to `CCC(=O)Nc1cccc(C2CCN(CCCC(=O)c3ccc(C)c(C)c3)CC2)c1` [Example 543], the Ki was determined as 27.6 nM.
Consider `O=C(CCCN1CCC(c2cccc(NC(=O)C3CC3)c2)CC1)c1ccc(Br)cc1` [Example 544], for which the Ki worked out at 16.2 nM.
As for `CCC(=O)Nc1cccc(C2CCN(CCCCC(=O)c3ccc(F)cc3)CC2)c1` [Example 545], the Ki was 52 nM.
Then `Cc1ccc(C(=O)CCCN2CCC(c3cccc(NC(=O)C4CC4)c3)CC2)cc1C` [Example 546], with 87.9 nM; and `Cc1ccc(C(=O)CCCN2CCC(c3cccc(NC(=O)C4CC4)c3)CC2)cc1` [Example 547], with 75.5 nM.
For the compound `O=C(CCCN1CCC(c2cccc(NC(=O)C3CC3)c2)CC1)c1ccc(F)cc1` [Example 548], the Ki was found to be 126 nM.
Take `O=C(CCCCN1CCC(c2cccc(NC(=O)C3CC3)c2)CC1)c1cccc(F)c1` [Example 549]: the Ki was determined as 39.7 nM.
Take `CCC(=O)Nc1cccc(C2CCN(CCCCC(=O)c3ccc(C(F)(F)F)cc3)CC2)c1` [Example 550]: the Ki amounted to 60.9 nM.
Then `O=C(CCCCN1CCC(c2cccc(NC(=O)C3CC3)c2)CC1)c1ccc(F)cc1` [Example 551], with 21.6 nM; and `CCC(=O)Nc1cccc(C2CCN(CCCCC(=O)c3cccc([N+](=O)[O-])c3)CC2)c1` [Example 552], with 24.7 nM.
On to `O=C(CCCCN1CCC(c2cccc(NC(=O)C3CC3)c2)CC1)c1cccc([N+](=O)[O-])c1` [Example 553], for which the Ki is 27.5 nM.
On to `CCC(=O)Nc1cccc(C2CCN(CCCCC(=O)c3ccccc3F)CC2)c1` [Example 554], for which the Ki amounted to 70.9 nM.
Turning to `CCC(=O)Nc1cccc(C2CCN(CCCCC(=O)c3cccc(F)c3)CC2)c1` [Example 555], the Ki is 50.3 nM.
Then `CCC(=O)Nc1cccc(C2CCN(CCCCC(=O)c3ccc([N+](=O)[O-])cc3)CC2)c1` [Example 556], with 35.6 nM.
In the case of `O=C(CCCCN1CCC(c2cccc(NC(=O)C3CC3)c2)CC1)c1ccc([N+](=O)[O-])cc1` [Example 557], the Ki stood at 25.6 nM.
As for `O=C(CCCCN1CCC(c2cccc(NC(=O)C3CC3)c2)CC1)c1ccc(Cl)cc1` [Example 558], the Ki came out at 20.2 nM.
As for `CCC(=O)Nc1cccc(C2CCN(CCCCC(=O)c3ccccc3C(F)(F)F)CC2)c1` [Example 559], the Ki was 62.3 nM.
Turning to `O=C(CCCCN1CCC(c2cccc(NC(=O)C3CC3)c2)CC1)c1ccccc1C(F)(F)F` [Example 560], the Ki was determined as 55.7 nM.
As to `CCC(=O)Nc1cccc(C2CCN(CCCCC(=O)c3ccc(Cl)cc3)CC2)c1` [Example 561], the Ki amounted to 92.9 nM.
Consider `CCC(=O)Nc1cccc(C2CCN(CCCCC(=O)c3cccc(Cl)c3)CC2)c1` [Example 562], for which the Ki was 48.1 nM.
As for `O=C(CCCCN1CCC(c2cccc(NC(=O)C3CC3)c2)CC1)c1ccccc1F` [Example 563], the Ki came to 50.2 nM.
For `O=C(CCCCN1CCC(c2cccc(NC(=O)C3CC3)c2)CC1)c1cccc(Cl)c1` [Example 564], the Ki was 28.9 nM.

Source of the values: US6727264B1 (Synaptic Pharmaceutical Corporation, priority 2001, dated 2004).
